The source of these data is publication PMC4942781, “A sodium channel inhibitor ISTX-I with a novel structure provides a new hint at the evolutionary link between two toxin folds” (Scientific Reports, 2016).

One test has as its system hNav1.4. Put plainly: Whole-cell patch clamp, hNav1.4 in HEK293T cells. In kind it is cell-based, human. The conditions noted are these: 10 μM ISTX-I; 50 ms step to -10 mV from -80 mV. How it is done: HEK293T (human embryonic kidney) cells were grown in DMEM containing 10% heat-inactivated FBS at 37 °C in a 5% CO2 incubator. The cDNA genes encoding human (h)Nav1.1, (h)Nav1.2, (h)Nav1.3, (h)Nav1.4, (h)Nav1.5, (h)Nav1.6 and (h)Nav1.7 were transiently transfected into HEK293T cells for electrophysiology using Lipofectamine-2000 (Invitrogen) in serum-reduced medium (Opti-MEM, Invitrogen) following the manufacturer’s instructions. The auxiliary subunits hβ1 and enhanced green florescent protein plasmids were cotransfected into HEK293T cells to increase the current density and efficiently select cells with green florescent protein for whole-cell patch-clamp recordings. After 12 h, the HEK293T cells were used for electrophysiological analysis.
DRG neurons with a large diameter (>[…]) and those with a relatively small diameter (<[…]) were chosen by measuring TTX-s and TTX-r currents, respectively. […] Potassium, calcium, and sodium currents were recorded in experimental cells using whole-cell patch-clamp recordings at room temperature, which were performed with an HEK EPC10 patch-clamp amplifier. […] Experimental data were acquired and analyzed using the programs patch master and Sigmaplot 9.0 (Sigma, USA). […]
Currents were recorded from experimental cells using whole-cell patch clamptechnique at room temperature (22–25 °C). […]
(In patch-clamp work, channel activity is measured electrically.)

The next test concerns TTX-s sodium channel. Put plainly: Whole-cell patch clamp, TTX-s sodium currents in rat DRG neurons. It is filed as cell-based. The method, then:
The effects of ISTX-I on voltage-gated ion channels were investigated in the dorsal root ganglion (DRG). DRG neurons were held at −80 mV for over 4 min to allow adequate equilibration between the micropipette solution and the cell interior, and then current traces were evoked using a 50 ms step depolarization to −10 mV every second.
Figure 3 Effects of ISTX-I on voltage-gated ion channels in rat DRG neurons. […] (C) Dose-dependent inhibition of ISTX-I on the TTX-s Nav channel (n = 5). (D) Current-voltage (I-V) relationship for the TTX-s Nav channel currents before (solid circles) and after (open circles) the application of 5 μM ISTX-I (n = 5). (E) Conductance–voltage (G-V) relationship of the TTX-s Nav channel before (solid circles) and after (open circles) treatment with 5 μM ISTX-I (n = 5). (F) Steady-state inactivation of the TTX-s Nav channel currents before (solid circles) and after(open circles) the application of 10 μM ISTX-I (n = 5).
Rat DRG cells were acutely dissociated from adult Sprague-Dawley rats[30]. Briefly, adult rats of either sex with body weights of approximately 200 g were killed by decapitation. The dorsal root ganglia were isolated quickly from the spinal cord and then transferred into Dulbecco’s modified Eagle’s medium (DMEM) containing trypsin I (0.15 mg/mL) and collagenase II (0.3 mg/mL) for incubation with an oscillation frequency of 200 rpm at 37 °C for 20 min. The trypsin inhibitor II-S (1 mg/mL) was added to terminate the reaction. The isolated DRG cells were split into 35 mm culture dishes with DMEM solution containing 10% fetal bovine serum (FBS) and were incubated in a CO2 incubator (5% CO2, 95% air, 37 °C) for 1–4 h before the patch-clamp experiment.
DRG neurons with a large diameter (>[…]) and those with a relatively small diameter (<[…]) were chosen by measuring TTX-s and TTX-r currents, respectively. Meanwhile, TTX (final concentration at 100 nM) was used to separate TTX-r sodium currents from TTX-s sodium currents. Suction pipettes (2.0–4.0 MΩ) were made of borosilicate glass capillary tubes with two-step pulling on a vertical micropipette puller (PC-10, Narishige). Potassium, calcium, and sodium currents were recorded in experimental cells using whole-cell patch-clamp recordings at room temperature, which were performed with an HEK EPC10 patch-clamp amplifier. The P/4 protocol was used to subtract linear capacitive and leakage currents. Experimental data were acquired and analyzed using the programs patch master and Sigmaplot 9.0 (Sigma, USA). All of the data points represent the mean ± SE (n = the number of separate experimental cells examined). Dose-response curves were fitted using the following Hill logistic equation: y = 1 − (1 − fmax)/[1 + ([Tx]/IC50)^n] in which n is an empirical Hill coefficient and fmax is the fraction of current resistant to inhibition at high toxin (Tx) concentrations.
Electrophysiological studies.
Currents were recorded from experimental cells using whole-cell patch clamptechnique at room temperature (22–25 °C). The patch pipettes were fabricated from borosilicate glass tubing using a two-stage vertical microelectrode puller (PC-10, Narishige, Japan). After establishing the whole-cell recording configuration, the resting potential was held at −80 mV for at least 5 min to allow adequate equilibration between the micropipette solution and the cell interior. The micropipette solution of sodium currents for dorsal root ganglion neurons contained (in mM): 105 […]
Ionic currents were filtered at 3 kHz and sampled at 20 kHz on EPC-9 patch clamp amplifier (HEKA, Lambrecht, Germany).
Supplementary Figure legends
Figure S1. Expression, purification and molecular mass determination of recombinant ISTX-I. A: Separation of ISTX-I by Sephadex G-50 gel filtration. […]
protein molecular weight marker; lanes1&2, ISTX-I/pET-32a(+) uninduced and induced cells, respectively. B: The protein peak (indicated by an arrow) from […]

Bridge positions count the residues as written; N and C are the ends. Ends that are not written are not given here.

The term IC50 denotes the point on the concentration scale where inhibition reaches its midpoint. As to “LCSENGDCAADECCVDTVFEGDMVTRSCEKTTGNFTECPGLTPIA (disulfide 2-14, 8-28, 13-38) [ISTX-I]”, the “effect on hNav1.4” value with hNav1.4 is recorded as “no effect”. In the test with TTX-s sodium channel, the “effect on TTX-s sodium channels (summary)” value was “specifically inhibited TTX-s sodium channels”. In addition, the “Inhibition of TTX-s Nav channel currents” value in the test on TTX-s sodium channel (1 μM ISTX-I (legend of Fig. 3A)) is “Inhibition of TTX-s Nav channel currents”. The “reduction of TTX-s sodium channel currents” value in the test on TTX-s sodium channel (2 μM ISTX-I, 50 ms step depolarization to −10 mV, held at −80 mV, room temperature) was “approximately 50%”. Further, in the test on TTX-s sodium channel (5 μM ISTX-I, TTX-s, n = 5), the “change of conductance–voltage (G-V) relationship” value was “No changes” and the “shift of current–voltage (I-V) curve” value is reported as “No changes”. Moreover, the “shift of steady-state inactivation curve, hyperpolarized direction” value in the test with TTX-s sodium channel (10 μM ISTX-I, TTX-s, n = 5) is recorded as “approximately 11 mV”. The same sequence showed a 50% inhibitory concentration (IC50) with TTX-s sodium channel (Hill equation fit, 50 ms step to −10 mV from −80 mV, mean ± SE, n = 5) of 2.5 ± 1.4 µM.
